Source: patent publication US4619943A, “Neolignans of Saururus cernuus L and analogues thereof” (priority 1984, dated 1986)
Values after ≈ are worked out from the molar mass of the structure shown. Values joined by “and” are separate entries in the source; they are usually repeats but may differ in a detail not shown here. Equal values may be shown once.

Key:
[1] = system: southern armyworm (Spodoptera eridania); assay: Insecticidal activity against southern armyworm; format: in vivo; conditions: both application rates, 1000 and 500 ppm, 14 days
Description: (§1) The present compounds were tested for insecticidal activity against cabbage looper (Trichoplusia ni [Hubner]), and southern armyworm (Spodoptera eridania) at application rates of 1000 and 500 ppm. The tests were conducted in petri dishes containing a solid food source in which the test compounds had been incorporated. The petri dishes containing the treated food source were infested with second instar larvae of southern armyworms or cabbage loopers. Ten larvae per replicate and two replicates per test rate were used. Mortality data were taken 14 days after infestation.

mice [2] = assay: Neuroleptic / CNS-depressant activity in experimental animals (general statements); format: in vivo
Solubility = format: physicochemical
[3] = Acute toxicity (LD50) in mice, procedure of Turner; format: in vivo, male Swiss mice; conditions: mouse, in vivo, ip; mice, intraperitoneal, 24 hours
mice [4] = assay: Acute toxicity (LD50) in mice, procedure of Turner; format: in vivo, male Swiss mice
[5] = system: mosquito larvae (Aedes aegypti); assay: Mosquito larvae test; format: in vivo; conditions: 24 hours
Description: Similarly, in a test using mosquito larvae (Aedes aegypti) as the insect test species, SC-7 gave 15% mortality and SC-8 gave 93% mortality at an application rate of 100 ppm. In this test, one ml of a solution of 1000 ppm of the test compound in 10% acetone - 90% water was added to 9 ml of water in a culture tube. Ten mosquito larvae were added, and mortality readings were taken 24 hours later.

M. incognita = assay: Effect on nematode motility; format: in vivo, Meloidogyne incognita; conditions: 24 hours, of 300 juveniles; for Number of Motile Nematodes, Avg.: water 233.6
Description: In a separate test, 300 juveniles of M. incognita were placed in a container closed with a screen of openings 17 μm and exposed to various concentrations of the test compound. After 24 hours, the number of nematodes able to migrate downward (from the inverted container) were counted. Eight replicates were run for each sample, and the results were analyzed by Duncan's

Pimephales promelas = assay: Acute toxicity to fish; format: in vivo; conditions: for % Mortality, Avg / % Mortality, single replicates (1 to 6): 2 hours; for % Mortality, single replicates (1 to 6): 120 min
Description: Many compounds having insecticidal activity also show toxicity to fish. For example, rotenoids, pyrethrins, and DDT have significant toxicity to fish. For this reason, fish have been used frequently to indicate potential insecticidal activity. The present compounds were tested for acute toxicity to fish by the method described in "Methods For Acute Toxicity Tests With Fish, Macro-Invertebrates and Amphibians", EPA 660/3-75-009, Committee on Methods for Toxicity Tests With Aquatic Organisms, Environmental Protection Agency, Corvallis, OR, 1975.
The fish, commonly known as Missouri minnows or fat heads (Pimephales promelas, family, cyprinidae) were purchased from a local hatchery and equilibrated to the new surroundings for 24 hours. They were kept in deionized water, previously adjusted to pH 6.5 with phosphate buffer at 23° C. Sufficient oxygen was provided, and the fish were deprived of food during the test period.
Groups of six fish were placed in containers with different concentrations of the test compound. The percent mortality was recorded every 30 minutes. The LC 50 values (mg/L) and 95% confidence limits were determined from the percent mortality data after 2 hours of exposure from 6 separate replicates using the method of Lichfield and Wiloxon [(J. Pharmacology and Exp. Therepeutics, 96, 99-113 (1949))].

[6] = system: cabbage looper (Trichoplusia ni [Hubner]); assay: Insecticidal activity against cabbage looper; format: in vivo; conditions: Trichoplusia ni, 336 h, second instar larvae, 14 days
Description: as §1

[7] = Antiamphetamine activity (method of Weissman et al., mice instead of rats); format: in vivo
Description: Neuroleptic drugs are said to bind to postsynaptic dopamine receptors in the brain, thereby blocking dopaminergic transmission. […] Based on this, an assay for possible neuroleptic activity was developed and is commonly used. […] 151, 339 (1966)), except that mice were used instead of rats. A comparison under the same conditions was also made of the antiamphetamine activity of a standard neuroleptic drug, haloperidol, which gave an ED50 value of 0.5 mg/Kg (Table 2).

[8] = Potentiation of pentobarbital sleeping time; format: in vivo, mice; parameters: Sleeping Time, Treated: unit not given here
Description: SC-8 has the ability to potentiate the sedative activity of pentobarbital. The procedure employed is that of Turner (R. A. Turner, Screening Methods in Pharmacology, Academic Press, New York, p. 302 (1965)), in which three groups of mice were injected ip with the drug at three levels and a control group with saline. […] The sleeping time of each was measured as the interval between the loss and recovery of the righting reflex, and activity is defined as at least a 200% prolongation of sleeping time.

SMILES: COc1ccc(C(O)C(C)Oc2ccc([C@@H]3O[C@@H](c4ccc(OC(C)C(O)c5ccc(OC)c(OC)c5)c(OC)c4)[C@@H](C)[C@@H]3C)cc2OC)cc1OC (stereo partly drawn) [SC-8, 2α,5β-bis[3-methoxy-4-{threo-3-hydroxy-3-(3,4-dimethoxyphenyl)}isopropoxyphenyl]-3α,4β-dimethyltetrahydrofuran]
- insecticidal activity, southern armyworm [1]: inactive
- CNS-depressant activity (mice [2]; experimental animals / mice): useful CNS-depressant activity
- neuroleptic activity (mice [2]; mouse, in vivo): neuroleptically active
- solubility in alcohols, acetone, chloroform, benzene and ethyl acetate (Solubility; alcohols, acetone, chloroform, benzene, ethyl acetate): readily soluble
- solubility in ether (Solubility; ether): sparingly
- solubility in hexane or water (Solubility; hexane or water): very slightly
- LD50 at 24 h [3]: 5.2 ± 0.2 mg/kg
- LD10 (mice [4]; mice): 4 mg/kg
- toxicity by the oral route (mice [4]; mice, oral, dose range of 10-20 mg/Kg): toxic
- absorbability following oral administration (mice [4]; oral, inferred from oral toxicity at 10-20 mg/Kg): ready absorbability
- mortality at 100 ppm [5]: 93%
- Number of Motile Nematodes, single replicates (1 to 8) (M. incognita; 1 ppm): 258 and 233 and 186 and 340 and 295 and 248 and 103 and 238
- Number of Motile Nematodes, Avg. (M. incognita; 1 ppm): 237.6
- Number of Motile Nematodes, single replicates (1 to 8) (M. incognita; 5 ppm): 113 and 294 and 223 and 236 and 264 and 256 and 205 and 211
- Number of Motile Nematodes, Avg. (M. incognita; 5 ppm): 225.3
- Number of Motile Nematodes, single replicates (1 to 8) (M. incognita; 10 ppm): 188 and 170 and 174 and 263 and 204 and 214 and 228
- Number of Motile Nematodes, Avg. (M. incognita; 10 ppm): 201.4
- Number of Motile Nematodes, single replicates (1 to 8) (M. incognita; 25 ppm): 67 and 85 and 97 and 56 and 99 and 120 and 131 and 84
- Number of Motile Nematodes, Avg. (M. incognita; 25 ppm): 92.4
- Number of Motile Nematodes, single replicates (1 to 8) (M. incognita; 50 ppm): 163 and 223 and 109 and 102 and 31 and 232 and 225 and 108
- Number of Motile Nematodes, Avg. (M. incognita; 50 ppm): 149.1
- % Mortality, Avg (Pimephales promelas; 0.13 mg/L): 9%
- % Mortality, single replicates (1 to 6) (Pimephales promelas; 0.13 mg/L): 0% (3×) and 17% (3×)
- % Mortality, Avg (Pimephales promelas; 0.25 mg/L): 28%
- % Mortality, single replicates (1 to 6) (Pimephales promelas; 0.25 mg/L): 33% (4×) and 17% (2×)
- % Mortality, Avg (Pimephales promelas; 0.38 mg/L): 50%
- % Mortality, single replicates (1 to 6) (Pimephales promelas; 0.38 mg/L): 67% and 50% (4×) and 33%
- % Mortality, Avg (Pimephales promelas; 0.5 mg/L): 64%
- % Mortality, single replicates (1 to 6) (Pimephales promelas; 0.5 mg/L): 67% (5×) and 50%
- % Mortality, Avg (Pimephales promelas; 0.75 mg/L): 75%
- % Mortality, single replicates (1 to 6) (Pimephales promelas; 0.75 mg/L): 83% (3×) and 67% (3×)
- % Mortality, Avg (Pimephales promelas; 1.0 mg/L): 97%
- % Mortality, single replicates (1 to 6) (Pimephales promelas; 1.0 mg/L): 100% (5×) and 83%
- LC50 (Pimephales promelas; 2 hours of exposure, pH 6.5, 23° C): 0.48 µg/mL (≈ 0.655 µM)
- mortality at 500 ppm ([6]; 500 ppm in food): 90%
- mortality at 1000 ppm ([6]; 1000 ppm in food): 100%
- ED50 ([7]; Mus musculus, mice, inhibition of amphetamine-induced agitation, stereotypy, body-hydration): 0.2 mg/kg
- % Inhibition (antiamphetamine activity) ([7]; mice, dose 0.03 mg/Kg): 20%
- % Inhibition (antiamphetamine activity) ([7]; mice, dose 0.1 mg/Kg): 40%
- % Inhibition (antiamphetamine activity) ([7]; mice, dose 0.3 mg/Kg): 60%
- % Inhibition (antiamphetamine activity) ([7]; mice, dose 0.5 mg/Kg): 60%
- % Inhibition (antiamphetamine activity) ([7]; mice, dose 1.0 mg/Kg): 70%
- % Inhibition (antiamphetamine activity) ([7]; mice, dose 1.2 mg/Kg): 80%
- % Inhibition (antiamphetamine activity) ([7]; mice, dose 1.5 mg/Kg): 80%
- inhibiting hyperactivity, agitation, and other effects induced by CNS stimulants of the amphetamine class (summary) ([7]; summary statement, no dose): significant activity
- % Increase of Sleeping Time ([8]; SC-8 0.01 mg/Kg ip, pentobarbital 40 mg/Kg): 175%
- Sleeping Time, Treated ([8]; SC-8 0.01 mg/Kg ip, pentobarbital 40 mg/Kg, control 12.0): 21.0
- % Increase of Sleeping Time ([8]; SC-8 0.06 mg/Kg ip, pentobarbital 40 mg/Kg): 217%
- Sleeping Time, Treated ([8]; SC-8 0.06 mg/Kg ip, pentobarbital 40 mg/Kg, control 12.0): 26.0
- % Increase of Sleeping Time ([8]; SC-8 0.125 mg/Kg ip, pentobarbital 40 mg/Kg): 158%
- Sleeping Time, Treated ([8]; SC-8 0.125 mg/Kg ip, pentobarbital 40 mg/Kg, control 12.0): 19.0
- % Increase of Sleeping Time ([8]; SC-8 0.25 mg/Kg ip, pentobarbital 40 mg/Kg): 304%
- Sleeping Time, Treated ([8]; SC-8 0.25 mg/Kg ip, pentobarbital 40 mg/Kg, control 10.8): 32.8
- % Increase of Sleeping Time ([8]; SC-8 0.4 mg/Kg ip, pentobarbital 42 mg/Kg): 280%
- Sleeping Time, Treated ([8]; SC-8 0.4 mg/Kg ip, pentobarbital 42 mg/Kg, control 16): 44.8
- % Increase of Sleeping Time ([8]; SC-8 0.5 mg/Kg ip, pentobarbital 40 mg/Kg): 357%
- Sleeping Time, Treated ([8]; SC-8 0.5 mg/Kg ip, pentobarbital 40 mg/Kg, control 10.8): 36.6
- % Increase of Sleeping Time ([8]; SC-8 1.0 mg/Kg ip, pentobarbital 40 mg/Kg): 300%
- Sleeping Time, Treated ([8]; SC-8 1.0 mg/Kg ip, pentobarbital 40 mg/Kg, control 10.8): 32.4
- % Increase of Sleeping Time ([8]; SC-8 4.0 mg/Kg ip, pentobarbital 42 mg/Kg): 857%
- Sleeping Time, Treated ([8]; SC-8 4.0 mg/Kg ip, pentobarbital 42 mg/Kg, control 16): 140
- prolongation of pentobarbital-sleeping time (conclusion) ([8]; dose range 1.0-0.05 mg/Kg): significant prolongation
- potentiating sedatives of the pentobarbital type (summary) ([8]; summary statement, no dose): significant activity
